Key:
HCT-116 carcinoma cells = test: Annexin-V-FITC/PI flow cytometry, HCT-116; type: cell-based, human; settings: 50 µg/mL, 48 h; for Early apoptotic cells (Annexin-V positive, PI negative): lower right quadrant; for Late apoptotic cells (Annexin-V and PI positive): upper right quadrant
Procedure: In order to examine the effect of compounds 3a and 3f on the apoptosis of HCT-116 and LoVo carcinoma cells, the Annexin-V-FITC probe was used and flow cytometry analyses were performed (Figure 7).
The percentages of the early apoptotic cells (Annexin-V positive and propidium iodide, PI negative) and late apoptotic cells (both Annexin-V and PI positive) were then calculated. Annexin V-PI staining was also performed to distinguish apoptotic and necrotic cell deaths.
The distribution of early and late apoptotic cells after treatment with compounds 3a and 3f was carried out using an Annexin V-FITC Apoptosis Detection Kit (BioVisionResearch Products—USA). HCT-116 and LoVo carcinoma cells were seeded in 60 mm^2 culture dishes and treated with the vehicles DMSO, and compounds 3a and 3f (50 µg/mL) for 48 h. Cells were then harvested, washed twice with PBS and resuspended in an Annexin-V binding buffer (BioVisionResearch Products—USA). Finally, the cells were stained with Annexin V-FITC and propidium iodide (PI). The fluorescent intensity of the stained cancer cells was determined using an FITC signal detector (usually FL1) and PI staining with the phycoerythrin emission signal detector (through quadrant statistics for necrotic and apoptotic cell populations).

[1] = DPPH radical scavenging assay; type: biochemical; settings: for Mean IC50 for scavenging initial DPPH radicals: mean ± SD of three replicates; for IC50: mean ± SD, converted from mg/mL, read-out: Mean IC50 for scavenging initial DPPH radicals (converted)
Summary of the method: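 Ethanolic DPPH mixed 1:1 with test compound, BHT as reference antioxidant, incubated 1 h at room temperature in darkness. Residual DPPH absorbance read at 519 nm against a no-compound control; scavenging % = (1 − Acompound/AControl) × 100, from three independent triplicate measurements.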

α-amylase = test: In vitro α-amylase (AA) inhibition assay; settings: mean ± SD of three replicates; for IC50: read-out: Mean IC50 α-Amylase (AA)
Procedure: Then, 180 µL of Labtest (the amylase substrate) was added and the samples were incubated for 8 min, followed by measuring the first reaction at 620 nm to obtain (X1). Afterwards, the reaction mixture was incubated for an additional 5 min at 37 °C; then, the second reaction was measured to obtain the final reading (X2). […] The results were expressed as IC50 µg/mL (as well as µM) and were determined from the standard curves.

Bcl-2 gene = test: qRT-PCR expressional level of Bcl-2 gene; type: cell-based, human; settings: 10 µg/mL, 24 h, HCT-116, vs negative control
Procedure: Considering these facts, enhancing apoptosis has been extensively studied as a potential drug target in cancer therapy, therefore, in this study, we investigated the effects of the most cytotoxic compounds, 3a and 3f, (at 10 µg/mL, 24 h incubation) on the expressional levels of these apoptotic regulator genes (Bax and Bcl-2) using quantitative reverse transcription–polymerase chain reactions (qRT-PCR).
Briefly, in a 25 mL flask (1 × 10^6 cells/flask), the human colon cancer cell lines (HCT-116 and LoVo) were grown for 24 h. After replacing the culture media with a medium containing 1% FBS for 24 h, the cells were treated with 10 µg/mL of each tested compound in 2 mL of fresh medium containing 1% FBS, or 0.25% DMSO, which was used as the negative control. The cells were adherent cells and they were detached using trypsin after being washed with ice-cold phosphate-buffered saline (PBS).
Primers specific for the Bax, Bcl-2 and Caspase-3 genes were designed using the primer blast (https://www.ncbi.nlm.nih.gov/tools/primer-blast/ accessed on 9 January 2023) software. The primers were used in the RT-qPCR analysis to amplify fragments of 100–200 bp in length (Table 11).
The RNeasy Mini Kit (Qiagen, Hilden, Germany) was used to extract the total RNA. The RNA purity, quality and quantity were checked using a Nanodrop 8000 spectrophotometer (Thermo Fisher Scientific, USA). […]

SMILES	Early apoptotic cells (Annexin-V positive, PI negative) (HCT-116 carcinoma cells)	Late apoptotic cells (Annexin-V and PI positive) (HCT-116 carcinoma cells)	Mean IC50 for scavenging initial DPPH radicals [1]	IC50 [1]	Mean IC50 α-Amylase (AA) (α-amylase)	IC50 (α-amylase)	Expressional level of anti-apoptotic gene Bcl-2 (Bcl-2 gene)
O=c1c2cc(Cl)ccc2[nH]c(=S)n1-c1cccc(C(F)(F)F)c1 [Compound 3a, 6-Chloro-2-thioxo-3-(3-trifluoromethyl-phenyl)-2,3-dihydro-1H-quinazolin-4-one]	14.6%	6.56%	68 ± 4 µg/mL	191 µM	124.333 ± 4.042 µg/mL	349 µM	0.635 fold
O=c1c2cc(Cl)ccc2[nH]c(=S)n1-c1ccc([N+](=O)[O-])cc1 [Compound 3f, 6-Chloro-3-(4-nitro-phenyl)-2-thioxo-2,3-dihydro-1H-quinazolin-4-one]	9.59%	5.32%	227 ± 10 µg/mL	680 µM	111.667 ± 3.512 µg/mL	335 µM	0.345 fold

From publication PMC10610505, “Synthesis and Biological Evaluation of Some New 3-Aryl-2-thioxo-2,3-dihydroquinazolin-4(1H)-ones and 3-Aryl-2-(benzylthio)quinazolin-4(3H)-ones as Antioxidants; COX-2, LDHA, α-Glucosidase and α-Amylase Inhibitors; and Anti-Colon Carcinoma and Apoptosis-Inducing Agents” (Pharmaceuticals, 2023)
